Experimental data: US5032595A, “Method of stimulating steroidogenesis with alpidem” (FIDIA-Georgetown Institute for the Neurosciences, priority 1989, dated 1991)

How the values were obtained:
[1] = biological target: T1, peripheral-type benzodiazepine receptor (PBR) in Y-1 cells (Mus musculus, UniProt P50637); assay: [3H]PK 11195 binding in Y-1 adrenocortical cells; conditions: 37° C., FIG. 2a
T1 construct: Y-1 cell cultures were scraped from the flasks; host or cells: Y-1 mouse adrenal tumor cells
Description: (§1) Cells--The Y-1 adrenal mouse tumor cell line used in these studies was obtained from the American Type Culture Collection (ATCC #CCL 79). Stock cultures were grown in modified Waymouth's MB752/l medium containing 20 mM HEPES, 1.2 g/l NaHCO3, 15% horse serum and 2.5% fetal calf serum, pH 7.4. Before use the cells were washed three times at 30 min intervals, with serum-free media in order to eliminate serum components that may interfere with the assays and were incubated for the indicated time periods in the presence of the drugs under investigation. Bovine fasciculata-reticularis and adrenocortical cells from adult (300 g) Sprague-Dawley rats were prepared as previously described by Yanagibashi et al, (1989) Endocrinology 124; 2838-2391.
Radioligand binding assays--Y-1 cell cultures were scraped from the flasks ([…]) in 5 ml of Kreb's buffer, dispersed by repetitive pipetting, and centrifuged at 1,200 × g for 5 min. The cell pellets were resuspended in Kreb's buffer and larger cellular aggregates were allowed to settle for 5 min. The finely dispersed cell suspensions were taken for further experimentation.
Binding assays were performed in a total volume of 250-400 ul of Kreb's buffer containing [^3 H]PK 11195 (0.07-20 nM) with 5 ug of cellular protein. Incubations were conducted at 37° C. for 30 min and bound radioligand was measured by filtration through Whatman GF/C filters followed by four rapid 5 ml washes with 25 mM Tris-HCl (pH 7.4) containing 1 uM PK 11195. Filters were subjected to liquid scintillation counting. Nonspecific binding was measured in the presence (of 10 uM nonradioactive PK 11195.

rat adrenocortical cells = assay: Corticosterone secretion in dissociated rat adrenocortical cells; format: cell-based; conditions: rat adrenocortical cell suspensions, FIG. 5a
Description: as §1
Measurement of steroid production--These experiments were performed with the Y-1 cells plated in 12--22 mm wells and incubated for the times shown at a final volume of 1 ml of serum-free media at 37° C. […] Steroid production was determined by measuring 20-γ-hydroxyprogesterone, the main steroid product of these cells, using a radioimmunoassay with an antibody donated by Dr. G. Nieswender (Univ. of Colorado, Fort Collins), under the process described in Kowal J. (1970), Recent Progress in Hormone Research 26, 623-687 and Schimmer B.P. (1981) in Functionally Differentiated Cell Lines, ed. […]

[2] = test system: purified rat Leydig cells; assay: Testosterone production by purified rat Leydig cells, basal and hCG stimulated

T1 sequence (P50637 whole entry): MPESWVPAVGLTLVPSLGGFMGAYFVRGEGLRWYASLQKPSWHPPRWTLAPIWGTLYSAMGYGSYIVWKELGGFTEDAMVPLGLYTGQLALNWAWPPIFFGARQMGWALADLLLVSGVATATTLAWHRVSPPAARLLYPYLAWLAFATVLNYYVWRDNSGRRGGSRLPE

In the case of `CN1C(=O)CN=C(c2ccc(Cl)cc2)c2cc(Cl)ccc21` [Ro5-4864, 4'-chlorodiazepam], the “rank order of compound displacement potency against [3H]PK 11195 binding” value [1] is reported as “alpidem>PK 11195>PK 14067>4'-chlorodiazepam>zolpidem>PK 14608, diazepam>flunitrazepam>clonazepam>flumazenil”, the “stimulation of steroid production (corticosterone), in words” value (rat adrenocortical cells) is reported as “much more potent at stimulating steroidogenesis in rat adrenocortical cells when compared with bovine preparations” and the “Testosterone, No Additions” value ([2]; compound 10^-5 M, basal, 4 hours at 32° C., mean ± S.D. n = 3, control 1.30 ± 0.20) is reported as 2.40 ± 0.30 ng/10^5 cel s/4 hours. For the same compound, the “Testosterone, hCG (50 ng/ml)” value ([2]; compound 10^-5 M, hCG 50 ng/ml, 4 hours at 32° C., mean ± S.D. n = 3, control 15.13 ± 2.05) was 14.10 ± 2.26 ng/10^5 cel s/4 hours and the “stimulation of testosterone production” value ([2]; purified rat Leydig cells, basal, 240 min) was “about 2 fold”.
